Data from PMC12349723, “Computationally accelerated identification of P-glycoprotein inhibitors” (PLOS One, 2025).
Where “and” joins values, the source holds several entries; their conditions need not be identical. Equal entries are not always repeated.

Tested on: HFL1 (human lung fibroblast) cell line
Experiment: MTT viability assay, inherent toxicity in non-cancerous HFL1 cells
Format: cell-based
Set-up: Mean % Survival: tested at 15 µM
Details: 15 µM compound, 48 h, MTT; 20% reduction in viability = maximum acceptable toxicity
Method: The chemotherapeutic sensitive DU145 human prostate cancer cells and the multidrug resistant sub-line, DU145-TXR, were generous gifts from Dr. Evan Keller (University of Michigan, Ann Arbor, MI). The MDR, P-gp overexpressing DU145-TXR cells were maintained under positive selection pressure by supplementing complete medium with 10 nM paclitaxel (Acros Organics, NJ). […] The MDR, P-gp overexpressing A2780-ADR cell line was maintained under positive selection pressure by supplementing complete medium with 100 nM doxorubicin (Fisher Scientific, NJ). The non-cancerous HFL1 (human lung fibroblast) cell line cell line was a generous gift from Dr. Robert Harrod (Southern Methodist University, Dallas, TX) and was maintained in complete F12K media consisting of F12K with 10% fetal bovine serum, 100 U/mL penicillin, and 100 µg/mL streptomycin (Gibco). Flasks and 96 well plates that were used with the non-cancerous line HFL1 were pre-treated with 0.1 mg/ml Collagen Type 1 (Gibco) and rinsed with PBS (Fisher).
MTT assays measure the reduction of yellow, water soluble 3-(4,5-dimethylthiazol-2-yl)-2,5-diphenyltetrazolium bromide (MTT) to blue, insoluble formazan crystals by cellular reductase processes in living cells. Cells were trypsinized from monolayers and seeded in complete medium in 96 well plates. Cancerous cell lines (DU145, DU145-TXR, A2780, A2780-ADR) were seeded at 3,000 cells per well in complete RPMI medium. The non-cancerous HFL1 line was seeded at 4,000 cells per well in complete F12K medium, in collagen-treated plates (Collagen Type 1, Gibco). Cells were incubated with experimental compounds for 48 hours at 37 °C and 5% CO2 in a humidified incubator. At 48 hours, MTT was added (20 µL/well of 5 mg/mL MTT in PBS) to each well. After incubation for 4 hours, the media was removed, and the formazan crystals were dissolved in 100 µL DMSO per well. Plates containing the semi-adherent A2780 or A2780-ADR lines were spun at 1400 rpm for 3 minutes prior to aspiration of media, and the addition of DMSO. Plates were shaken for 10 minutes at 500 rpm on an Orbital shaker (LabDoctor from MidSci, St Louis, MO). The absorbance was measured at 570 nm using a Bio-Tek Cytation 5 (Bio-Tek, Winooski, VT). The measured absorbance value was correlated with the number of metabolically active cells in that well, corrected for absorbance of media. The percent of cell viability (termed ‘survival’ here) was calculated as a percentage of survival of the control condition, which refers to vehicle-treated (DMSO as vehicle) cells, or vehicle-and-chemotherapeutic-treated cells, if testing a compound’s ability to re-sensitize cells to a chemotherapeutic. Percent survival was calculated using the following equation:
% Survival=100 × absorbance of experimental cells/mean absorbance of control treated cells
For DU145-TXR, DU145, HFL1 and A2780 cells – data are the mean ± one standard deviation, 8 samples per compound, from at least two independent trials per compound. […] For A2780-ADR cells, data are the mean ± one standard deviation with 12 samples per compound, from at least two independent trials per compound.
If a P-gp inhibitor is intrinsically toxic to non-cancerous cells, it is more likely to be participating in undesirable off-target interactions. The top compounds from the screens shown above were screened for inherent toxicity using the non-cancerous HFL1 (human lung fibroblast) cell line. HFL1 cells were incubated with 15 µM compound for 48 hours, after which cell viability was assessed using MTT cell viability assays. A 20% reduction in cell viability (compared to DMSO-treated cells) was considered the maximum acceptable toxicity (see dotted line). The chemotherapeutic daunorubicin was included as a positive control for toxicity.
The top compounds from previous screens were tested against the non-cancerous HFL1 cell line.

| Compound | Inherent toxicity to non-cancerous HFL1 cells |
| --- | --- |
| O=S(=O)(Cc1nc2ccccc2n1CC(O)c1ccc(Cl)cc1)c1ccccc1 (stereo not drawn) [Compound 97, OC(Cn1c(CS(=O)(=O)c2ccccc2)nc2ccccc12)c1ccc(Cl)cc1] | either ‘non-toxic’ or ‘within acceptable limits’ of toxicity |
| O=C(c1nc(-c2ccc3cc[nH]c3c2)no1)N1CCN(c2nsc3ccccc23)CC1 [Compound 70, O=C(N1CCN(CC1)c1nsc2ccccc12)c1nc(no1)-c1ccc2cc[nH]c2c1] | either ‘non-toxic’ or ‘within acceptable limits’ of toxicity |
| O=S(=O)(CCSc1nnc(-c2ccccc2)c2ccccc12)c1ccccc1 [Compound 96, O=S(=O)(CCSc1nnc(-c2ccccc2)c2ccccc12)c1ccccc1] | either ‘non-toxic’ or ‘within acceptable limits’ of toxicity |
| O=C(NCc1cccc(F)c1)c1nnn2c1Sc1c(C(=O)NCc3cccc(F)c3)nnn1CC2 [Compound 122, Fc1cccc(CNC(=O)c2nnn3CCn4nnc(C(=O)NCc5cccc(F)c5)c4Sc23)c1] | either ‘non-toxic’ or ‘within acceptable limits’ of toxicity |
| COc1cccc(N2CCN(c3ccc4nnc(CCC(=O)Nc5ccc(F)c(F)c5)n4n3)CC2)c1 [Compound 101, COc1cccc(c1)N1CCN(CC1)c1ccc2nnc(CCC(=O)Nc3ccc(F)c(F)c3)n2n1] | either ‘non-toxic’ or ‘within acceptable limits’ of toxicity |

Same assay, conditions: HFL1 cells, compound alone, mean of 8 samples

| Compound | Mean % Survival |
| --- | --- |
| O=S(=O)(Cc1nc2ccccc2n1CC(O)c1ccc(Cl)cc1)c1ccccc1 (stereo not drawn) [Compound 97, OC(Cn1c(CS(=O)(=O)c2ccccc2)nc2ccccc12)c1ccc(Cl)cc1] | 84.9% |
| O=C(c1nc(-c2ccc3cc[nH]c3c2)no1)N1CCN(c2nsc3ccccc23)CC1 [Compound 70, O=C(N1CCN(CC1)c1nsc2ccccc12)c1nc(no1)-c1ccc2cc[nH]c2c1] | 81.4% |
| O=S(=O)(CCSc1nnc(-c2ccccc2)c2ccccc12)c1ccccc1 [Compound 96, O=S(=O)(CCSc1nnc(-c2ccccc2)c2ccccc12)c1ccccc1] | 92.7% |
| O=C(NCc1cccc(F)c1)c1nnn2c1Sc1c(C(=O)NCc3cccc(F)c3)nnn1CC2 [Compound 122, Fc1cccc(CNC(=O)c2nnn3CCn4nnc(C(=O)NCc5cccc(F)c5)c4Sc23)c1] | 79.7% |
| COc1cccc(N2CCN(c3ccc4nnc(CCC(=O)Nc5ccc(F)c(F)c5)n4n3)CC2)c1 [Compound 101, COc1cccc(c1)N1CCN(CC1)c1ccc2nnc(CCC(=O)Nc3ccc(F)c(F)c3)n2n1] | 100.9% |

Same assay, conditions: HFL1 cells, compound alone, single samples (trials 1-2, samples 1-4)

| Compound | % Survival (individual sample) |
| --- | --- |
| O=S(=O)(Cc1nc2ccccc2n1CC(O)c1ccc(Cl)cc1)c1ccccc1 (stereo not drawn) [Compound 97, OC(Cn1c(CS(=O)(=O)c2ccccc2)nc2ccccc12)c1ccc(Cl)cc1] | 85% |
| O=C(c1nc(-c2ccc3cc[nH]c3c2)no1)N1CCN(c2nsc3ccccc23)CC1 [Compound 70, O=C(N1CCN(CC1)c1nsc2ccccc12)c1nc(no1)-c1ccc2cc[nH]c2c1] | 81% and 85% |
| O=S(=O)(CCSc1nnc(-c2ccccc2)c2ccccc12)c1ccccc1 [Compound 96, O=S(=O)(CCSc1nnc(-c2ccccc2)c2ccccc12)c1ccccc1] | 91% |
| COc1cccc(N2CCN(c3ccc4nnc(CCC(=O)Nc5ccc(F)c(F)c5)n4n3)CC2)c1 [Compound 101, COc1cccc(c1)N1CCN(CC1)c1ccc2nnc(CCC(=O)Nc3ccc(F)c(F)c3)n2n1] | 103% |

Molecular target: T1, P-gp (Homo sapiens, UniProt P08183)
T1 construct: The MDR, P-gp overexpressing DU145-TXR cells were maintained under positive selection pressure; endogenous in cells; host or cells: DU145-TXR (paclitaxel-resistant sub-line of DU145 human prostate cancer cells)
T1 sequence (P08183 whole entry): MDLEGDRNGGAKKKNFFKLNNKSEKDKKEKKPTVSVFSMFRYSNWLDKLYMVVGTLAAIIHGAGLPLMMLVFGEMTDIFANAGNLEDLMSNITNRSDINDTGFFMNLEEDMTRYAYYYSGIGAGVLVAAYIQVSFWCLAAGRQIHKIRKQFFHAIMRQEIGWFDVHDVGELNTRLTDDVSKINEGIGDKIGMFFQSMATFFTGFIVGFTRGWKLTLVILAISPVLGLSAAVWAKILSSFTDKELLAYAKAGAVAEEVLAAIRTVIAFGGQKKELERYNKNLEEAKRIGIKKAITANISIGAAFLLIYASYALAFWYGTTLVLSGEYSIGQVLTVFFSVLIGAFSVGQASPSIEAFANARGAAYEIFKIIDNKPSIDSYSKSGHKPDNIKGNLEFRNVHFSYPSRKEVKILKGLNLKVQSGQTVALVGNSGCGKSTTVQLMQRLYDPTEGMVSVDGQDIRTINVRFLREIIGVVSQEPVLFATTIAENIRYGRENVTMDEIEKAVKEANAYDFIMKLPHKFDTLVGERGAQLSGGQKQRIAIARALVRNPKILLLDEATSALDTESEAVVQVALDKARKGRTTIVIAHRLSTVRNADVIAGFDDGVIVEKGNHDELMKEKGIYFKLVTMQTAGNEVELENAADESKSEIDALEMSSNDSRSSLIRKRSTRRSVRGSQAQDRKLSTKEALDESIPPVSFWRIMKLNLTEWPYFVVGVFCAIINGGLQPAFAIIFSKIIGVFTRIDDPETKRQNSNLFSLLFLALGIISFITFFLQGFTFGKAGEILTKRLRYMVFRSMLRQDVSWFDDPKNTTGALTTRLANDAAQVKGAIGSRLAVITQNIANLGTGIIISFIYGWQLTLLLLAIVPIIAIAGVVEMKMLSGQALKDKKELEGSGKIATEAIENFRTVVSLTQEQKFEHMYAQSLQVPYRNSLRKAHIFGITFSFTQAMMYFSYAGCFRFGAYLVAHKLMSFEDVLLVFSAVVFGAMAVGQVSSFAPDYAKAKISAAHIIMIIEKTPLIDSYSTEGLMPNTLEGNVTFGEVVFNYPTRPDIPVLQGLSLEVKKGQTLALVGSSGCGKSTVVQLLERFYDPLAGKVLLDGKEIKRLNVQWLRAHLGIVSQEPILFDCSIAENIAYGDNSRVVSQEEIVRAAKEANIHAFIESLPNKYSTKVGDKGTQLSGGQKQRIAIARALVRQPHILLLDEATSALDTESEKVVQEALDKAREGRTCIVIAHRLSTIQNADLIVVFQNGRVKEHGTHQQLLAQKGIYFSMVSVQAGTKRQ
Experiment: Daunorubicin accumulation (fluorescence) assay in DU145-TXR cells
Format: cell-based
Details: Student's T test of the mean
Method: These assays are based upon those reported in [9]. DU145-TXR cells were seeded in 96 well plates in complete RPMI medium at 15,000 cells per well. Cells were allowed to grow for 48 hours in a humidified incubator at 37 °C and 5% CO2. After 48 hours, media was replaced with fresh complete RPMI medium. Cells were treated with 10 µM of experimental compound with or without 10 µM daunorubicin (DAU). After a 2-hour incubation at 37 °C and 5% CO2 in a humidified incubator, media was removed with a vacuum aspirator, and cells were washed twice with ice-cold phosphate buffered saline (PBS) solution. Cells were lysed in PBS containing 0.5% SDS and 0.5% Triton X-100 and shaken on an Orbital Shaker for 10 min at 500 rpm. […] Data are the mean ± one standard deviation from three independent experiments, 3 samples per experiment. Statistical significance was determined with a Student’s T test in GraphPad prism.
Δ DAU Fluorescence= Fluorescence of (Compound+DAU) treated cells/Fluorescence of DAU treated cells
These assays used the P-gp highly overexpressing DU145-TXR cell line. In this assay, the intrinsic fluorescence of DAU was used to quantify its relative concentration in the cell. An increase in fluorescence correlates with an increase in the intracellular accumulation of DAU. […] Cells were treated with 10 µM of experimental compound with or without 10 µM DAU. After a 2-hour incubation, cells were washed and lysed, and the total fluorescence of DAU in each well was quantified.
Fig 5 Change in fluorescence of DAU in the presence of experimental compounds. Fold change in fluorescence of the P-gp substrate Daunorubicin (DAU) in the presence or absence of experimental compounds or known P-gp modulators. Cells were treated with 10 µM compound in the presence or absence of 10 µM DAU. After washing and lysing the cells, the intracellular DAU fluorescence was measured and expressed as a fold change relative to the fluorescence of DU145-TXR cells treated with DAU alone. […] Three samples per trial, three independent trials. Significance was determined using a Student’s T test of the mean by comparing fluorescence of DAU and compound to that of DAU alone; P > 0.05 = N.S., P < 0.05 = *, P < 0.01 = **, P < 0.001 = ***, P < 0.0001 = ****. Data also shown in S4 Fig.

| Compound | Significance (DAU + compound vs DAU alone) |
| --- | --- |
| O=S(=O)(Cc1nc2ccccc2n1CC(O)c1ccc(Cl)cc1)c1ccccc1 (stereo not drawn) [Compound 97, OC(Cn1c(CS(=O)(=O)c2ccccc2)nc2ccccc12)c1ccc(Cl)cc1] | **** (P < 0.0001 = ****) |
| O=C(c1nc(-c2ccc3cc[nH]c3c2)no1)N1CCN(c2nsc3ccccc23)CC1 [Compound 70, O=C(N1CCN(CC1)c1nsc2ccccc12)c1nc(no1)-c1ccc2cc[nH]c2c1] | * (P < 0.05 = *) |
| O=S(=O)(CCSc1nnc(-c2ccccc2)c2ccccc12)c1ccccc1 [Compound 96, O=S(=O)(CCSc1nnc(-c2ccccc2)c2ccccc12)c1ccccc1] | **** (P < 0.0001 = ****) |
| COc1cccc(N2CCN(c3ccc4nnc(CCC(=O)Nc5ccc(F)c(F)c5)n4n3)CC2)c1 [Compound 101, COc1cccc(c1)N1CCN(CC1)c1ccc2nnc(CCC(=O)Nc3ccc(F)c(F)c3)n2n1] | **** (P < 0.0001 = ****) |
